In BindingDB's records for doi:10.1016/j.bmcl.2011.01.015 (Incyte, 2011):
pIC50: −log10 of the molar value.

Assay: Antagonist activity at human CCR5 receptor by chemotaxis assay

pIC50: 7.96
SMILES: CO[C@@H]1COCC[C@@H]1N[C@@H]1CC[C@](CC(F)(F)F)(C(=O)N2CCN(c3cc(C(F)(F)F)ccn3)CC2)C1 [((1S,3R)-3-((3S,4S)-3-methoxy-tetrahydro-2H-pyran-4-ylamino)-1-(2,2,2-trifluoroethyl)cyclopentyl)(4-(4-(trifluoromethyl)pyridin-2-yl)piperazin-1-yl)methanone]
